Patent US5948798A, “Pyridiniminyl-1,2-benzisoxazoles and -benzisothiazoles” (Hoechst Marion Roussel, Inc., priority 1997, dated 1999)
Counter-ions that a name gives are not always drawn. Like-named read-outs stand apart in the source and are kept apart here.

Key:
Acetylcholinesterase = biological target: T1, Acetylcholinesterase (Rattus norvegicus, UniProt P37136); assay: in vitro inhibition of acetylcholinesterase assay; format: biochemical, rat (male Wistar, corpora striata)
T1 construct: corpora striata dissected free, weighted and homogenized in 19 volumes; from tissue; host or cells: male Wistar rat corpora striata, homogenate
T1 sequence (P37136 32-614): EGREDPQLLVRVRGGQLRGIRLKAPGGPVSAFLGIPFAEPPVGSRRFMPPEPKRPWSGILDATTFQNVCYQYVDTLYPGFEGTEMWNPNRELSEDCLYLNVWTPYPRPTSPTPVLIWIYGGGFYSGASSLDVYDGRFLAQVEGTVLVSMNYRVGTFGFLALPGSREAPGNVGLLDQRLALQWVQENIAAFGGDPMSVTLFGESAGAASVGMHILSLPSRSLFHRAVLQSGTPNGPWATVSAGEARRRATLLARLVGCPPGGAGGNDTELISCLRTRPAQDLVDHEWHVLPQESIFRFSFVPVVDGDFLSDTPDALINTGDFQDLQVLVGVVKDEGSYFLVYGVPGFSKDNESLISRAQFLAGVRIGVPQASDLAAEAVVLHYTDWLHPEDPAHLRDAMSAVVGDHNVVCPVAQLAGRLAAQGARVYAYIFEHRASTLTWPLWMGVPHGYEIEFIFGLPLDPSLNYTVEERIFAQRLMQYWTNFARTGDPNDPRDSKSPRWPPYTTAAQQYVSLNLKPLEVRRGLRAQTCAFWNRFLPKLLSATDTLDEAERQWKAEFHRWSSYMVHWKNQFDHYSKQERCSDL
Protocol: 1. 0.05M Phosphate Buffer (pH 7.2)
A solution of monobasic sodium phosphate monohydrate (6.85 g) in distilled water (100 mL) is added to a solution of dibasic sodium phosphate heptahydrate (13.4 g) and distilled water (100 mL) until a pH of 7.2 was attained. The solution was diluted 1 to 10 with distilled water.
3. 5,5-Dithiobisnitrobenzoic acid in Buffer
The 0.05M Phosphate Buffer (pH 7.2) was added to 5.5-dithiobisnitrobenzoic acid to a total volume of 100 mL. i.e., a quantity sufficient (gs) to 100 mL.
4. Stock Solution of Drug
A 2 millimolar stock solution of the test drug is prepared in a quantity sufficient of either acetic acid or dimethyl sulfoxide to volume with 5,5-Dithiobisnitrobenzene Acid in Buffer. Stock Solution of Drug is serially diluted (1:10) so that the final cuvette concentration is 10^-4 molar.
Male Wistar rats are decapitated, brains rapidly removed, corpora striata dissected free, weighted and homogenized in 19 volumes (approximately 7 mg protein/mL) of 0.05M phosphate Buffer (pH 7.2) using a Potter-Elvehjem homogenizer. A 25 μl aliquot of this suspension is added to 1 mL of the vehicle or various concentrations of the test drug and preincubated for 10 minutes at 37° C. Enzyme activity is measured with a Beckman DU-50 spectrophotometer with the following software and instrument settings:
6. Cuvettes--2 mL cuvettes using auto 6-sampler;
7. Blank--1 for each substrate concentration;
8. Interval time--15 seconds (15 or 30 seconds for kinetics);
9. Total time--5 minutes (5 to 10 minutes for kinetics);
13. Results--yes (gives slope); and
Reagents are added to the blank and sample cuvettes as follows: […]
Blank 0.8 mL 5.5-Dithiobisnitrobenzoic Acid
0.8 mL Substrate in Buffer
2. Control 0.8 mL 5.5-Dithiobisnitrobenzoic Acid/Enzyme
3. Drug 0.8 mL 5.5-Dithiobisnitrobenzoic Acid/Drug/Enzyme
Blank values are determined for each run to control for non-enzymatic hydrolysis of substrate and these values are automatically subtracted by the Kindata program available on kinetics soft-pac module. This program also calculates the rate of absorbance change for each cuvette.
Substrate concentration is 10 millimolar diluted 1:2 in assay yielding final concentration of 5 millimolar. 5,5-Dithiobisnitrobenzoic acid concentration is 0.5 millimolar yielding 0.25 millimolar final concentration. [formula]
IC50 values are calculated from log-probit analysis

Monoamine Oxidase A = biological target: T2, Monoamine Oxidase A (Rattus norvegicus, UniProt P21396); assay: in vitro inhibition of monoamine oxidase assay (monoamine oxidase A); format: biochemical, rat (male Wistar, whole brain minus cerebellum); conditions: rat brain mitochondria, [3H]-5-hydroxytryptamine 200 μM, pH 7.4, 37° C., 30 min; log-probit
T2 construct: serves as the tissue source for mitochondrial monoamine oxidase; from tissue; host or cells: male Wistar rat whole brain minus cerebellum, 18,000 g pellet (P2)
T2 sequence (P21396 1-526): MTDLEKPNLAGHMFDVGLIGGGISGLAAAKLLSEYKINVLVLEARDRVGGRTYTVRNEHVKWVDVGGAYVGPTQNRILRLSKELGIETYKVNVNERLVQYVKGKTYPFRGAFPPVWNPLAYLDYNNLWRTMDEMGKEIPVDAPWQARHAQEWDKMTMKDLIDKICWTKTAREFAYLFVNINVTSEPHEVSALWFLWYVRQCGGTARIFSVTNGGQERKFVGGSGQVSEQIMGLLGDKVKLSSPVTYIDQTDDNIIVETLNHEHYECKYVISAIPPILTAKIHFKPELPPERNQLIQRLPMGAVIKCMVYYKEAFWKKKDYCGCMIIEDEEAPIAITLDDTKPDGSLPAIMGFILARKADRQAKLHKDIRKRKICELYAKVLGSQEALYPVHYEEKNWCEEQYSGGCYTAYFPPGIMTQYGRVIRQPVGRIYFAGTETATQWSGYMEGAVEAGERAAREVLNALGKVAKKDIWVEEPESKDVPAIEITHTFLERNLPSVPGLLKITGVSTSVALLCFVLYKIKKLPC
Text: (§1) In this assay, a modification of an assay described by M. V. Kindt, et al., Europ.
(§2) Male Wistar rats weighing 150-250 grams were sacrificed and the brains rapidly removed.

Monoamine Oxidase B = biological target: T3, Monoamine Oxidase B (Rattus norvegicus, UniProt P19643); assay: in vitro inhibition of monoamine oxidase assay (monoamine oxidase B); format: biochemical, rat (male Wistar, whole brain minus cerebellum); conditions: rat brain mitochondria, [14C]-phenethylamine 200 μM, pH 7.4, 37° C., 30 min; log-probit
T3 construct: serves as the tissue source for mitochondrial monoamine oxidase; from tissue; host or cells: male Wistar rat whole brain minus cerebellum, 18,000 g pellet (P2)
T3 sequence (P19643 1-520): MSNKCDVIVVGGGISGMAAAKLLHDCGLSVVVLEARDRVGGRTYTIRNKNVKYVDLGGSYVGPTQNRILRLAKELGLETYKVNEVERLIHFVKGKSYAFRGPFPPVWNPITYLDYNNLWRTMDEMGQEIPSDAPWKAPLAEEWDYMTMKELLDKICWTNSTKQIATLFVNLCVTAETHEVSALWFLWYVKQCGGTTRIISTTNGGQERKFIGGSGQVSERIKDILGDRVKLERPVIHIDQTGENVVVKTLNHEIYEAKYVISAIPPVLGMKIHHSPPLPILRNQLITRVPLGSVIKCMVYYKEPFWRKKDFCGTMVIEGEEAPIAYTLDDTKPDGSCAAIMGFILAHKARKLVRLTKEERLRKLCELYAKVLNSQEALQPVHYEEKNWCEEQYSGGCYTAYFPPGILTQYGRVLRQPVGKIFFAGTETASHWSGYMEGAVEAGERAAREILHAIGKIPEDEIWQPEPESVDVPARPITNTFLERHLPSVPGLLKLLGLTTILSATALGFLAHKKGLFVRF
Text: as §1, §2

Q: What does the source list for `COc1ccc2c(N=c3ccn(Cc4ccccc4)cc3)noc2c1` [6-Methoxy-3-[1-phenylmethyl-N-4(1H)-pyridiniminyl]-1,2-benzisoxazole hydrobromide]?
A: IC50 (Acetylcholinesterase): 0.09 µM; IC50 (Monoamine Oxidase A): 3 µM; IC50 (Monoamine Oxidase B): 25.2 µM

Q: `c1ccc(CCn2ccc(=Nc3noc4ccccc34)cc2)cc1` [3-[1-(2-Phenylethyl)-N-4(1H)-pyridiniminyl]-1,2-benzisoxazole hydrobromide] was tested. Which IC50 (Monoamine Oxidase A) did it give?
A: 3 µM

Q: What about the IC50 (Monoamine Oxidase B) of the same compound?
A: 15.9 µM

Q: What does the source list for `CCCn1ccc(=Nc2noc3cc(Cl)ccc23)cc1` [6-Chloro-3-]1-propyl-N-4(1H)pyridiniminyl]-1,2-benzisoxazole hydrochloride]?
A: IC50 (Monoamine Oxidase A): 1.65 µM; IC50 (Monoamine Oxidase B): 27.2 µM

Q: Which IC50 (Acetylcholinesterase; rat corpora striata homogenate, pH 7.2, acetylthiocholine 5 mM final, 10 min preincubation at 37° C., log-probit, read-out: Inhibition of Acetylcholinesterase Activity IC50) does the source give for `Fc1ccc(Cn2ccc(=Nc3noc4ccccc34)cc2)cc1` [3-[1-(4-Fluorophenyl)methyl-N-4(1H)-pyridiniminyl]-1,2-benzisoxazole hydrobromide] here?
A: 0.44 µM

Q: With `c1ccc(CCCn2ccc(=Nc3noc4ccccc34)cc2)cc1` [3-[1-(3-Phenylpropyl)-N-4(1H)-pyridiniminyl]-1,2-benzisoxazole hydrobromide] as the compound, how does the IC50 (Acetylcholinesterase) read?
A: 0.65 µM

Q: For `c1ccc(Cn2ccc(=Nc3noc4ccccc34)cc2)cc1` [3-[1-Phenylmethyl-N-4(1H)-pyridiniminyl]-1,2-benzisoxazole hydrobromide], which IC50 (Acetylcholinesterase) is on record?
A: 0.28 µM

Q: What about the IC50 (Monoamine Oxidase A) of the same compound?
A: 9 µM

Q: And the IC50 (Monoamine Oxidase B)?
A: 33.7 µM
